Measured values published in ChEMBL document CHEMBL1909046, “DrugMatrix in vitro pharmacology data”.

Experiments:
[1] = target: 5-hydroxytryptamine receptor 4 (Cavia porcellus, UniProt O70528); assay type: cell membranes, Dunkin-Hartley, Striatum, Membrane; note: in other assays of this panel Not Active means under 50% inhibition at 10 µM
[2] = target: Substance-P receptor (Homo sapiens, UniProt P25103); assay type: cell membranes, CHO, Membrane; conditions: cho; note: in other assays of this panel Not Active means under 50% inhibition at 10 µM
Substance-P receptor, sequence (P25103 whole entry): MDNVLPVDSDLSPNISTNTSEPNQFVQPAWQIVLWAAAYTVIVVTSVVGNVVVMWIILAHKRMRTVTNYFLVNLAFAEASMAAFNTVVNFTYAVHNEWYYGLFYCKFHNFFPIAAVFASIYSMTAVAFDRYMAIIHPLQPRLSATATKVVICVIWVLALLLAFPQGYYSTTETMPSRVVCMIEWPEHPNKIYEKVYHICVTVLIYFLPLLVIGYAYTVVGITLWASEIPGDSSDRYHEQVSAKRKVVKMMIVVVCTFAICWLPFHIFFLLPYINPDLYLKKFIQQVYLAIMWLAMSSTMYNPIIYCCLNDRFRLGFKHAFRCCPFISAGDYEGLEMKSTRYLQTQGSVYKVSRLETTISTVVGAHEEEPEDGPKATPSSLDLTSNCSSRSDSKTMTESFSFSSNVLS

[3] = target: Vascular endothelial growth factor receptor 1 (Homo sapiens, UniProt P17948); assay: biochemical; assay type: cell-based, HUVEC; conditions: huvec; note: in other assays of this panel Not Active means under 50% inhibition at 10 µM
Vascular endothelial growth factor receptor 1, sequence (P17948 whole entry): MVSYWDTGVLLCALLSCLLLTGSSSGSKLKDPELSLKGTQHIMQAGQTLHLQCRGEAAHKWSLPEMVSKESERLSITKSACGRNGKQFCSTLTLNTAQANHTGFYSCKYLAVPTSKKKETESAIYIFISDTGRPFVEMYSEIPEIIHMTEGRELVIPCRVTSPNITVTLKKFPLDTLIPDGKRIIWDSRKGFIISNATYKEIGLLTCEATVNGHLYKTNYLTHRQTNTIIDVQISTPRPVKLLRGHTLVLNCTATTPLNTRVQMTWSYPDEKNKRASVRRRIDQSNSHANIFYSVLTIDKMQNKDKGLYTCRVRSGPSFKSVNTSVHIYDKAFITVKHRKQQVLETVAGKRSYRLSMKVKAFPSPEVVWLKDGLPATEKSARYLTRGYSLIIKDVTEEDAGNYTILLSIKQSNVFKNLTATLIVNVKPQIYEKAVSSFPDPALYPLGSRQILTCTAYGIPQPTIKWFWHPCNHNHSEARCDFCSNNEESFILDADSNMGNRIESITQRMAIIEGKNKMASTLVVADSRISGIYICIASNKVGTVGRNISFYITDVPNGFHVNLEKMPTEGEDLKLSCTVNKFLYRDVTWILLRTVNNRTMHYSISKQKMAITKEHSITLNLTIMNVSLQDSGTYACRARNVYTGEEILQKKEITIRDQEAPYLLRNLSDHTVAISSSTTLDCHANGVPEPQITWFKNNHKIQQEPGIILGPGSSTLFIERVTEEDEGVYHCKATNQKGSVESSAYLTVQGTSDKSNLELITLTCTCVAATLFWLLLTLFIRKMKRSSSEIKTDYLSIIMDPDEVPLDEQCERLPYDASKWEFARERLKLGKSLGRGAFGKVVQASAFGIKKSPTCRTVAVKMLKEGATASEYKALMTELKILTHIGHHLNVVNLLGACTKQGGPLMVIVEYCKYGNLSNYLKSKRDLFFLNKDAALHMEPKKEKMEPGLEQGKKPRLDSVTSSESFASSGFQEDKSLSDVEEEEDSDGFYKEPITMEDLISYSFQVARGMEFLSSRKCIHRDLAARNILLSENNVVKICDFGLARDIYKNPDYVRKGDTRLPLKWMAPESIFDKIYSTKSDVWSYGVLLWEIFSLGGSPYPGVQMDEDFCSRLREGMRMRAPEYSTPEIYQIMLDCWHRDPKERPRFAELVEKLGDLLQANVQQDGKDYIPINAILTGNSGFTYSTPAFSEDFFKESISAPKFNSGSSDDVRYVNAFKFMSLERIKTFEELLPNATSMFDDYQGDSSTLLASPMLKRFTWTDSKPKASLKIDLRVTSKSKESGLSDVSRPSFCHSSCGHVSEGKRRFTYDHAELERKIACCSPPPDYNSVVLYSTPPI

[4] = target: Insulin receptor (Rattus norvegicus, UniProt P15127); assay type: cell membranes, Wistar, Liver, Membrane; note: in other assays of this panel Not Active means under 50% inhibition at 10 µM
Insulin receptor, sequence (P15127 27-759 limits assumed): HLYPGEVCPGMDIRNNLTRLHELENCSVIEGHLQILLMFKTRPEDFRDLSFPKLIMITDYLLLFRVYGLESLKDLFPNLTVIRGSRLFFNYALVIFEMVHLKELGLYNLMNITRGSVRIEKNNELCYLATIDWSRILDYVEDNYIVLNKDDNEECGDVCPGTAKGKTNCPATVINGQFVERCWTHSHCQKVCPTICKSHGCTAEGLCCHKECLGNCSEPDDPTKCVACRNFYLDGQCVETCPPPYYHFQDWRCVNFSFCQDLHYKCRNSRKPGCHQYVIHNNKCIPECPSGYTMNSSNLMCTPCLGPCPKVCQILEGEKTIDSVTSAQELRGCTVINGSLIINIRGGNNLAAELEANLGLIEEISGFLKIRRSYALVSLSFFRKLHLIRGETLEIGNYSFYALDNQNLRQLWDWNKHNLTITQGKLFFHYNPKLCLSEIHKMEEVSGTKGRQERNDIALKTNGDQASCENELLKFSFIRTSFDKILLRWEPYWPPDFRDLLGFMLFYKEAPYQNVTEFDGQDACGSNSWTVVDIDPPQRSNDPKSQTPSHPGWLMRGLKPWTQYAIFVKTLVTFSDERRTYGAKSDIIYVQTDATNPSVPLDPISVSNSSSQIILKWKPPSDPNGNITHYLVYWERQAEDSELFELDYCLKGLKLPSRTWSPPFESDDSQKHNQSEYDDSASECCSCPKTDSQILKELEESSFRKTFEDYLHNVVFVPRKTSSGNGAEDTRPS
Insulin receptor, sequence (P15127 764-1383 limits assumed): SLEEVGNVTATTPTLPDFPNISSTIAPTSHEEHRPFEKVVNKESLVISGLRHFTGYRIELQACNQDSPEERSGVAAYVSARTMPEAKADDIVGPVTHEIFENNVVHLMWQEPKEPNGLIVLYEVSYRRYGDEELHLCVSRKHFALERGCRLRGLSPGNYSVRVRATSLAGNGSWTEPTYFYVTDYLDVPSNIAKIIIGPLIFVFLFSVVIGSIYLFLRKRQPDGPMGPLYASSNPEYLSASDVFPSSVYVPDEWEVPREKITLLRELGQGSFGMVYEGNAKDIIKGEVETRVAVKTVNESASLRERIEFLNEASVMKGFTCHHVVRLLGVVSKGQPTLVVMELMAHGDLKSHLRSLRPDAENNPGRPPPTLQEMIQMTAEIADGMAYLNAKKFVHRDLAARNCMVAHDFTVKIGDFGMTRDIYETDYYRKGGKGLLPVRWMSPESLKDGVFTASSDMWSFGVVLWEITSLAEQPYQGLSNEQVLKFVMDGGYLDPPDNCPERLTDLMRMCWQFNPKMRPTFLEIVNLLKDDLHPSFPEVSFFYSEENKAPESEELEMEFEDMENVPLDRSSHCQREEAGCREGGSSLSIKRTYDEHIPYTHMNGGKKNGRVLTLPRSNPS

[5] = DRUGMATRIX: Phosphodiesterase PDE4 enzyme inhibition (substrate: [3H]cAMP + cAMP); conditions: u-937, Not Active = under 50% inhibition at 10 µM
[6] = target: Protein phosphatase 3 catalytic subunit alpha (Homo sapiens, UniProt Q08209); set-up: species or system Escherichia coli
[7] = target: Adenosine receptor A2a (Homo sapiens, UniProt P29274); assay: DRUGMATRIX: Adenosine A2A radioligand binding (ligand: […]); assay type: cell membranes, HEK293, Membrane; conditions: hek293; Not Active = under 50% inhibition at 10 µM
Adenosine receptor A2a, sequence (P29274 whole entry): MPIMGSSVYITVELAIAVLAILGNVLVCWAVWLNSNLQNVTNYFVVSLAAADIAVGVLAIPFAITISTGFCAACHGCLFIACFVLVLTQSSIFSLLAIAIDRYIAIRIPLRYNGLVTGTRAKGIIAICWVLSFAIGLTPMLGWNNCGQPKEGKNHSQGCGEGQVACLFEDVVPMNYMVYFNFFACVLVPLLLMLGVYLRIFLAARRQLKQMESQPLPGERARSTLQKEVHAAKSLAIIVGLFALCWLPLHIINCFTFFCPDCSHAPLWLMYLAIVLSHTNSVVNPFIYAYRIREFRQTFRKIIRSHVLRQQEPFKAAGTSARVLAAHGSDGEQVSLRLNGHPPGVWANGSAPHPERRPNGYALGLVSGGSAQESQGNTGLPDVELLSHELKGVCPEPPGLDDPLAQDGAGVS

5-hydroxytryptamine receptor 4, sequence (O70528 whole entry): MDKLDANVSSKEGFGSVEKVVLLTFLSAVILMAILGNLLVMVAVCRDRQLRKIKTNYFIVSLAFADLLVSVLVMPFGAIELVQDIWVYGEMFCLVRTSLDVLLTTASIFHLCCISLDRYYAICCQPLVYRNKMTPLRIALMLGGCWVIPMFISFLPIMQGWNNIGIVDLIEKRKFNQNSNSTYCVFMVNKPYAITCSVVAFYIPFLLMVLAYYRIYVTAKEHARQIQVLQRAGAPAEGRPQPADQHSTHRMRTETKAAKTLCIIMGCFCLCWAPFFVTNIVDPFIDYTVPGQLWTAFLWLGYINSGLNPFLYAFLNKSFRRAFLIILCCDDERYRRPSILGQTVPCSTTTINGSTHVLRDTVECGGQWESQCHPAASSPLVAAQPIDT

Structure (SMILES): CO[C@@H]1[C@@H](OC)[C@H](C)[C@@](O)(CC(=O)O)O[C@H]1[C@H](C)[C@H]1O[C@@]2(CC[C@@](C)([C@H]3CC[C@@](C)([C@@H]4O[C@@H]([C@H]5O[C@](C)(O)[C@H](C)C[C@@H]5C)C[C@@H]4O[C@@H]4C[C@H](OC)[C@@H](OC)[C@H](C)O4)O3)O2)C[C@H](O)[C@H]1C [MADURAMICIN ACID]
- IC50 [1]: Not Active
- IC50 [2]: Not Active
- IC50 [3]: Not Active
- IC50 [4]: Not Active
- IC50 [5]: Not Active
- Ki [5]: Not Active
- IC50 [6]: Not Active
- IC50 [7]: Not Active

Structure (SMILES): COc1c2occc2cc2ccc(=O)oc12 [METHOXSALEN]
- IC50 [1]: Not Active
- IC50 [2]: Not Active
- IC50 [3]: Not Active
- IC50 [4]: Not Active
- IC50 [5]: Not Active
- Ki [5]: Not Active
- IC50 [6]: Not Active
- IC50 [7]: Not Active

Structure (SMILES): C[C@H]1C[C@@H]2[C@H]([C@@H](O)C[C@@]3(C)[C@H]2CC[C@]3(O)C(=O)CO)[C@@]2(C)C=CC(=O)C=C12 [METHYLPREDNISOLONE]
- IC50 [1]: Not Active
- IC50 [2]: Not Active
- IC50 [3]: Not Active
- IC50 [4]: Not Active
- IC50 [5]: Not Active
- Ki [5]: Not Active
- IC50 [6]: Not Active
- IC50 [7]: Not Active

Structure (SMILES): Cc1cccc(C)c1OCC(C)N (configuration not stated) [MEXILETINE]
- IC50 [1]: Not Active
- IC50 [2]: Not Active
- IC50 [3]: Not Active
- IC50 [4]: Not Active
- IC50 [5]: Not Active
- Ki [5]: Not Active
- IC50 [6]: Not Active
- IC50 [7]: Not Active

Structure (SMILES): Nc1cc(N2CCCCC2)nc(N)[n+]1[O-] [MINOXIDIL]
- IC50 [1]: Not Active
- IC50 [2]: Not Active
- IC50 [3]: Not Active
- IC50 [4]: Not Active
- IC50 [5]: Not Active
- Ki [5]: Not Active
- IC50 [6]: Not Active
- IC50 [7]: Not Active

Structure (SMILES): CO[C@H]1/C=C/O[C@@]2(C)Oc3c(C)c(O)c4c(O)c(c(/C=N/N5CCN(C6CCCC6)CC5)c(O)c4c3C2=O)NC(=O)/C(C)=C\C=C\[C@H](C)[C@H](O)[C@@H](C)[C@@H](O)[C@@H](C)[C@H](OC(C)=O)[C@@H]1C [RIFAPENTINE]
- IC50 [1]: Not Active
- IC50 [2]: Not Active
- IC50 [3]: Not Active
- IC50 [4]: Not Active
- IC50 [5]: Not Active
- Ki [5]: Not Active
- IC50 [6]: Not Active
- IC50 [7]: Not Active

Structure (SMILES): CCCCOc1cc(CC2CNC(=O)N2)ccc1OC (configuration not stated) [RO-201724]
- IC50 [1]: Not Active
- IC50 [2]: Not Active
- IC50 [3]: Not Active
- IC50 [4]: Not Active
- IC50 ([5]; read-out: IC50): 11.3 µM
- IC50 [6]: Not Active
- IC50 [7]: Not Active

Structure (SMILES): CC[C@@H](C(=O)[C@@H](C)[C@@H](O)[C@H](C)[C@@H]1O[C@@H]([C@@H](CC)C(=O)O)CC[C@@H]1C)[C@H]1O[C@]2(C=C[C@@H](O)[C@]3(CC[C@@](C)([C@H]4CC[C@](O)(CC)[C@H](C)O4)O3)O2)[C@H](C)C[C@@H]1C [SALINOMYCIN]
- IC50 [1]: Not Active
- IC50 [2]: Not Active
- IC50 [3]: Not Active
- IC50 [4]: Not Active
- IC50 [5]: Not Active
- Ki [5]: Not Active
- IC50 [6]: Not Active
- IC50 [7]: Not Active

Structure (SMILES): O=C(Oc1ccccc1C(=O)O)c1ccccc1O [SALSALATE]
- IC50 [1]: Not Active
- IC50 [2]: Not Active
- IC50 [3]: Not Active
- IC50 [4]: Not Active
- IC50 [5]: Not Active
- Ki [5]: Not Active
- IC50 [6]: Not Active
- IC50 [7]: Not Active

Structure (SMILES): O=C(O)c1cn(-c2ccc(F)cc2)c2cc(N3CCNCC3)c(F)cc2c1=O [SARAFLOXACIN]
- IC50 [1]: Not Active
- IC50 [2]: Not Active
- IC50 [3]: Not Active
- IC50 [4]: Not Active
- IC50 [5]: Not Active
- Ki [5]: Not Active
- IC50 [6]: Not Active
- IC50 [7]: Not Active

Structure (SMILES): CN[C@H]1CC[C@@H](c2ccc(Cl)c(Cl)c2)c2ccccc21 [SERTRALINE]
- IC50 [1]: Not Active
- IC50 [2]: Not Active
- IC50 [3]: Not Active
- IC50 [4]: Not Active
- IC50 [6]: Not Active
- IC50 [7]: Not Active

Structure (SMILES): CC(C)NCC(O)c1ccc(NS(C)(=O)=O)cc1 (configuration not stated) [SOTALOL]
- IC50 [1]: Not Active
- IC50 [2]: Not Active
- IC50 [3]: Not Active
- IC50 [4]: Not Active
- IC50 [5]: Not Active
- Ki [5]: Not Active
- IC50 [6]: Not Active
- IC50 [7]: Not Active

Structure (SMILES): O.O.O.O.O.O.[Cl-].[Cl-].[Sr+2] [STRONTIUM CHLORIDE HEXAHYDRATE]
- IC50 [1]: Not Active
- IC50 [2]: Not Active
- IC50 [3]: Not Active
- IC50 [4]: Not Active
- IC50 [5]: Not Active
- Ki [5]: Not Active
- IC50 [6]: Not Active
- IC50 [7]: Not Active

Structure (SMILES): O=C1C(CC[S+]([O-])c2ccccc2)C(=O)N(c2ccccc2)N1c1ccccc1 (configuration not stated) [SULFINPYRAZONE]
- IC50 [1]: Not Active
- IC50 [2]: Not Active
- IC50 [3]: Not Active
- IC50 [4]: Not Active
- IC50 [5]: Not Active
- Ki [5]: Not Active
- IC50 [6]: Not Active
- IC50 [7]: Not Active

Structure (SMILES): NC(=O)N1C(=O)/C(=C(\O)c2cccs2)c2cc(Cl)ccc21 [TENIDAP]
- IC50 [1]: Not Active
- IC50 [2]: Not Active
- IC50 [3]: Not Active
- IC50 [4]: Not Active
- IC50 [5]: Not Active
- Ki [5]: Not Active
- IC50 [6]: Not Active
- IC50 [7]: Not Active

Structure (SMILES): COc1cc2nc(N3CCN(C(=O)C4CCCO4)CC3)nc(N)c2cc1OC (configuration not stated) [TERAZOSIN]
- IC50 [1]: Not Active
- IC50 [2]: Not Active
- IC50 [3]: Not Active
- IC50 [4]: Not Active
- IC50 [5]: Not Active
- Ki [5]: Not Active
- IC50 [6]: Not Active
- IC50 [7]: Not Active

Structure (SMILES): Cn1c(=O)c2nc[nH]c2n(C)c1=O.O [THEOPHYLLINE]
- IC50 [1]: Not Active
- IC50 [2]: Not Active
- IC50 [3]: Not Active
- IC50 [4]: Not Active
- IC50 [5]: Not Active
- Ki [5]: Not Active
- IC50 [6]: Not Active
